We go through 28 molecules from US10590128B2, “6,7,8,9-tetrahydro-5H-pyrido[2,3-d]azepine dopamine D3 ligands” (Pfizer Inc., priority 2016, dated 2020).

Structures are written as SMILES.

The target of assay [1] is human dopamine D2 receptor (hD2R) (Homo sapiens, UniProt P14416). Put plainly: Human D2 receptor binding assay ([^3H]-Spiperone). Particulars: CHO cells expressing hD2R, geometric mean of 2-5 determinations unless marked b (single determination).
Assay [2] concerns the target human dopamine D3 receptor (hD3R) (Homo sapiens, UniProt P35462). Put plainly: Human D3 receptor binding assay ([^3H]-7-OH-DPAT). Particulars: CHO cells expressing hD3R, geometric mean of 2-5 determinations unless marked b (single determination), read-out: hD3 in CHO cells Ki.

human dopamine D3 receptor (hD3R), sequence (P35462 whole entry): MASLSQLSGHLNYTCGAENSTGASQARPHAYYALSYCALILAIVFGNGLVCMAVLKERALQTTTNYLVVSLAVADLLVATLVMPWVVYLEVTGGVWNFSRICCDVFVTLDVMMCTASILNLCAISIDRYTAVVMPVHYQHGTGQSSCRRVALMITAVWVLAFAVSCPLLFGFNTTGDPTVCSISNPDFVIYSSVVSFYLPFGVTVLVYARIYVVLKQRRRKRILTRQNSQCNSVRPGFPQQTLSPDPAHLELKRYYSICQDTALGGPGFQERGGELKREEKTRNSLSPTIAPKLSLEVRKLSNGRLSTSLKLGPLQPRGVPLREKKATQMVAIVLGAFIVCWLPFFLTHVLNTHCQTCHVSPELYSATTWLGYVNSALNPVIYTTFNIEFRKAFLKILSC
human dopamine D2 receptor (hD2R), sequence (P14416 whole entry): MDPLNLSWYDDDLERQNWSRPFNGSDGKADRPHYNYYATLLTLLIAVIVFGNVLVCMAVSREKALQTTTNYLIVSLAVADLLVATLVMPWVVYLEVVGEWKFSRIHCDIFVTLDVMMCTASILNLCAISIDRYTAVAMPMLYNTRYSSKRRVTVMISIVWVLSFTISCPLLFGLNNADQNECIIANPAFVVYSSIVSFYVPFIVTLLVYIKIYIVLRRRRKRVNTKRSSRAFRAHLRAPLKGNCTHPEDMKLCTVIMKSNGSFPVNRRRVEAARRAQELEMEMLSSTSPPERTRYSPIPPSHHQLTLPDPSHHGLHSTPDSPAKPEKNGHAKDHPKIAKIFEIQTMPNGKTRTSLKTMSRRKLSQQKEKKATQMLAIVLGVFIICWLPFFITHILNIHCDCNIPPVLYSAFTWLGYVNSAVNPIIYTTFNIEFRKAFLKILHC

The term Ki denotes the equilibrium dissociation constant of an inhibitor or competing ligand from its target. Regarding `CCN1CCc2cc(NS(=O)(=O)c3ccc4c(c3)CC(C)O4)c(OC)nc2CC1` (centres unmarked) [Example 67, N-(7-ethyl-2-methoxy-6,7,8,9-tetrahydro-5H-pyrido[2,3-d]azepin-3-yl)-2-methyl-2,3-dihydro-1-benzofuran-5-sulfonamide], the Ki in assay [1] amounted to 660 nM; in assay [2], 4.02 nM.

As for `CCN1CCc2cc(NS(=O)(=O)c3ccc([C@H]4C[C@H](OC)C4)cc3)c(OC)nc2CC1` [Example 68, N-(7-ethyl-2-methoxy-6,7,8,9-tetrahydro-5H-pyrido[2,3-d]azepin-3-yl)-4-(trans-3-methoxycyclobutyl)benzenesulfonamide], the Ki was 338 nM in assay [1] and 1.26 nM in assay [2].

For the molecule `CCN1CCc2cc(NS(=O)(=O)c3ccc(C4(C)CCOCC4)cc3)c(OC)nc2CC1` [Example 69, N-(7-ethyl-2-methoxy-6,7,8,9-tetrahydro-5H-pyrido[2,3-d]azepin-3-yl)-4-(4-methyltetrahydro-2H-pyran-4-yl)benzenesulfonamide], the Ki in assay [1] amounted to 392 nM; in assay [2], 4.77 nM.

In the case of `CCN1CCc2cc(NS(=O)(=O)c3ccc(C4CCOC4)cc3)c(OC)nc2CC1` (centres unmarked) [Example 71, N-(7-ethyl-2-methoxy-6,7,8,9-tetrahydro-5H-pyrido[2,3-d]azepin-3-yl)-4-(tetrahydrofuran-3-yl)benzenesulfonamide], the figures for the inhibition constant (Ki) in assay [1] and in assay [2] were 754 nM and 4.84 nM, respectively.

As to `CCN1CCc2cc(NS(=O)(=O)c3ccc([C@H]4C[C@@H](OC)C4)cc3)c(OC)nc2CC1` [Example 72, N-(7-ethyl-2-methoxy-6,7,8,9-tetrahydro-5H-pyrido[2,3-d]azepin-3-yl)-4-(cis-3-methoxycyclobutyl)benzenesulfonamide], the Ki was determined as 420 nM in assay [1] and 2.65 nM in assay [2].

As to `CCN1CCc2cc(NS(=O)(=O)c3ccc(C4(F)CCOCC4)cc3)c(OC)nc2CC1` [Example 75, N-(7-ethyl-2-methoxy-6,7,8,9-tetrahydro-5H-pyrido[2,3-d]azepin-3-yl)-4-(4-fluorotetrahydro-2H-pyran-4-yl)benzenesulfonamide], the inhibition constant (Ki) in assay [1] amounted to 262 nM; in assay [2], 3.2 nM.

For `COc1nc2c(cc1NS(=O)(=O)c1ccc([C@H]3C[C@H](OC)C3)cc1)CCN(C)CC2` [Example 76, 4-(trans-3-methoxycyclobutyl)-N-(2-methoxy-7-methyl-6,7,8,9-tetrahydro-5H-pyrido[2,3-d]azepin-3-yl)benzenesulfonamide], the values for the Ki in assay [1] and in assay [2] were 203 nM and 1.28 nM, respectively.

`COc1nc2c(cc1NS(=O)(=O)c1ccc(OC3CCOCC3)cc1)CCN(C)CC2` [Example 78, N-(2-methoxy-7-methyl-6,7,8,9-tetrahydro-5H-pyrido[2,3-d]azepin-3-yl)-4-(tetrahydro-2H-pyran-4-yloxy)benzenesulfonamide]: the inhibition constant (Ki) is 718 nM in assay [1] and 7.56 nM in assay [2].

For the molecule `COc1nc2c(cc1NS(=O)(=O)c1ccc(C3(C)CCOCC3)cc1)CCN(C)CC2` [Example 79, N-(2-methoxy-7-methyl-6,7,8,9-tetrahydro-5H-pyrido[2,3-d]azepin-3-yl)-4-(4-methyltetrahydro-2H-pyran-4-yl)benzenesulfonamide], the Ki came out at 403 nM in assay [1] and 3.67 nM in assay [2].

Take `COc1nc2c(cc1NS(=O)(=O)c1ccc(C3(F)CCOCC3)cc1)CCN(C)CC2` [Example 80, 4-(4-fluorotetrahydro-2H-pyran-4-yl)-N-(2-methoxy-7-methyl-6,7,8,9-tetrahydro-5H-pyrido[2,3-d]azepin-3-yl)benzenesulfonamide]: the Ki in assay [1] worked out at 238 nM; in assay [2], 1.77 nM.

Turning to `COc1nc2c(cc1NS(=O)(=O)c1ccc([C@H]3C[C@@H](OC)C3)cc1)CCN(C)CC2` [Example 81, 4-(cis-3-methoxycyclobutyl)-N-(2-methoxy-7-methyl-6,7,8,9-tetrahydro-5H-pyrido[2,3-d]azepin-3-yl)benzenesulfonamide], the Ki is 311 nM in assay [1] and 1.19 nM in assay [2].

For `COc1nc2c(cc1NS(=O)(=O)c1ccc(OC3CCOC3)cc1)CCN(C)CC2` (centres unmarked) [Example 82, N-(2-methoxy-7-methyl-6,7,8,9-tetrahydro-5H-pyrido[2,3-d]azepin-3-yl)-4-(tetrahydrofuran-3-yloxy)benzenesulfonamide], the Ki in assay [1] amounted to 342 nM; in assay [2], 4.37 nM.

For `COc1nc2c(cc1NS(=O)(=O)c1ccc([C@H](C)OC)cc1)CCN(C)CC2` [Example 89, 4-[(1S)-1-methoxyethyl]-N-(2-methoxy-7-methyl-6,7,8,9-tetrahydro-5H-pyrido[2,3-d]azepin-3-yl)benzenesulfonamide], the Ki in assay [1] was 76 nM; in assay [2], 1.67 nM.

As to `COc1nc2c(cc1NS(=O)(=O)c1ccc([C@@H](C)OC)cc1)CCN(C)CC2` [Example 90, 4-[(1R)-1-methoxyethyl]-N-(2-methoxy-7-methyl-6,7,8,9-tetrahydro-5H-pyrido[2,3-d]azepin-3-yl)benzenesulfonamide], the Ki came to 207 nM in assay [1] and 1.93 nM in assay [2].

Turning to `COc1nc2c(cc1NS(=O)(=O)c1ccc(O[C@H]3CCOC3)cc1)CCN(C)CC2` [Example 91, N-(2-methoxy-7-methyl-6,7,8,9-tetrahydro-5H-pyrido[2,3-d]azepin-3-yl)-4-[(3S)-tetrahydrofuran-3-yloxy]benzenesulfonamide], the results for the inhibition constant (Ki) in assay [1] and in assay [2] were 208 nM and 3.37 nM, respectively.

Regarding `COc1nc2c(cc1NS(=O)(=O)c1ccc([C@H]3CC[C@@H](OC)CC3)cc1)CCN(C)CC2` [Example 92, 4-(cis-4-methoxycyclohexyl)-N-(2-methoxy-7-methyl-6,7,8,9-tetrahydro-5H-pyrido[2,3-d]azepin-3-yl)benzenesulfonamide], the Ki in assay [1] is 600 nM; in assay [2], 5.53 nM.

With `COc1nc2c(cc1NS(=O)(=O)c1ccc(C3(OC)CCCC3)cc1)CCN(C)CC2` [Example 95, 4-(1-methoxycyclopentyl)-N-(2-methoxy-7-methyl-6,7,8,9-tetrahydro-5H-pyrido[2,3-d]azepin-3-yl)benzenesulfonamide], the inhibition constant Ki in assay [1] stood at 45.3 nM; in assay [2] it was 0.6 nM.

Take `CCN1CCc2cc(NS(=O)(=O)c3ccc([C@]4(F)C[C@H](OC)C4)cc3)c(OC)nc2CC1` [Example 96, N-(7-ethyl-2-methoxy-6,7,8,9-tetrahydro-5H-pyrido[2,3-d]azepin-3-yl)-4-(trans-1-fluoro-3-methoxycyclobutyl)benzenesulfonamide]: the Ki was found to be 317 nM in assay [1] and 2.79 nM in assay [2].

Consider `COc1nc2c(cc1NS(=O)(=O)c1ccc(OC3CCOC3)nc1)CCN(C)CC2` (centres unmarked) [Example 97, N-(2-methoxy-7-methyl-6,7,8,9-tetrahydro-5H-pyrido[2,3-d]azepin-3-yl)-6-(tetrahydrofuran-3-yloxy)pyridine-3-sulfonamide], for which the figures for the Ki in assay [1] and in assay [2] were 983 nM and 5.89 nM, respectively.

Take `COc1nc2c(cc1NS(=O)(=O)c1ccc([C@@H]3CCCO3)cc1)CCN(C)CC2` [Example 98, N-(2-methoxy-7-methyl-6,7,8,9-tetrahydro-5H-pyrido[2,3-d]azepin-3-yl)-4-[(2S)-tetrahydrofuran-2-yl]benzenesulfonamide]: the Ki amounted to 488 nM in assay [1] and 4.01 nM in assay [2].

Regarding `COc1nc2c(cc1NS(=O)(=O)c1ccc([C@H]3CCCO3)cc1)CCN(C)CC2` [Example 99, N-(2-methoxy-7-methyl-6,7,8,9-tetrahydro-5H-pyrido[2,3-d]azepin-3-yl)-4-[(2R)-tetrahydrofuran-2-yl]benzenesulfonamide], the Ki in assay [1] stood at 314 nM; in assay [2], 3.05 nM.

Take `COc1nc2c(cc1NS(=O)(=O)c1ccc(C3(OC)CCCC3)nc1)CCN(C)CC2` [Example 100, 6-(1-methoxycyclopentyl)-N-(2-methoxy-7-methyl-6,7,8,9-tetrahydro-5H-pyrido[2,3-d]azepin-3-yl)pyridine-3-sulfonamide]: the Ki in assay [1] came out at 663 nM; in assay [2] it was 6.35 nM.

As to `CCN1CCc2cc(NS(=O)(=O)c3ccc(C4(F)CCCC4)nc3)c(OC)nc2CC1` [Example 101, N-(7-ethyl-2-methoxy-6,7,8,9-tetrahydro-5H-pyrido[2,3-d]azepin-3-yl)-6-(1-fluorocyclopentyl)pyridine-3-sulfonamide], the Ki in assay [1] came out at 677 nM; in assay [2], 6.26 nM.

On to `CCN1CCc2cc(NS(=O)(=O)c3ccc(C4CCCC4)nc3)c(OC)nc2CC1` [Example 102, 6-cyclopentyl-N-(7-ethyl-2-methoxy-6,7,8,9-tetrahydro-5H-pyrido[2,3-d]azepin-3-yl)pyridine-3-sulfonamide], for which the inhibition constant Ki turned out to be 325 nM in assay [1] and 2.81 nM in assay [2].

Turning to `COc1nc2c(cc1NS(=O)(=O)c1ccc(OC(C)(C)C)nc1)CCN(C)CC2` [Example 103, 6-tert-butoxy-N-(2-methoxy-7-methyl-6,7,8,9-tetrahydro-5H-pyrido[2,3-d]azepin-3-yl)pyridine-3-sulfonamide], the inhibition constant (Ki) in assay [1] amounted to 45.2 nM; in assay [2], 1.85 nM.

As to `COc1nc2c(cc1NS(=O)(=O)c1ccc([C@H]3CCCCO3)c(C)c1)CCN(C)CC2` [Example 104, N-(2-methoxy-7-methyl-6,7,8,9-tetrahydro-5H-pyrido[2,3-d]azepin-3-yl)-3-methyl-4-[(2R)-tetrahydro-2H-pyran-2-yl]benzenesulfonamide], the Ki in assay [1] was 3.91 nM; in assay [2], 0.39 nM.

`COc1nc2c(cc1NS(=O)(=O)c1ccc([C@@H]3CCCCO3)c(C)c1)CCN(C)CC2` [Example 105, N-(2-methoxy-7-methyl-6,7,8,9-tetrahydro-5H-pyrido[2,3-d]azepin-3-yl)-3-methyl-4-[(2S)-tetrahydro-2H-pyran-2-yl]benzenesulfonamide]: the inhibition constant (Ki) was found to be 26.1 nM in assay [1] and 0.46 nM in assay [2].

Regarding `CCN1CCc2cc(NS(=O)(=O)c3ccc([C@H]4CCCCO4)c(C)c3)c(OC)nc2CC1` [Example 107, N-(7-ethyl-2-methoxy-6,7,8,9-tetrahydro-5H-pyrido[2,3-d]azepin-3-yl)-3-methyl-4-[(2R)-tetrahydro-2H-pyran-2-yl]benzenesulfonamide], the figures for the inhibitory constant (Ki) in assay [1] and in assay [2] were 7.24 nM and 0.46 nM, respectively.
